Where a SMILES comes first, the peptide text is derived from it. Bridges are numbered along the chain shown (N, C = ends). [ ]: non-standard residue; d: D form. The star is where a group is joined. ξ: configuration not given here. d1Nal = N[C@H](Cc1cccc2ccccc12)C(=O)O; Nle = CCCC[C@H](N)C(=O)O; Dab = NCC[C@H](N)C(=O)O; ξHyp = O=C(O)C1CC(O)CN1; Dap = NC[C@H](N)C(=O)O; Hexanoyl = CCCCCC(=O)*; Ava = NCCCCC(=O)O; Bn = c1ccc(C*)cc1; βAla = NCCC(=O)O
What was measured:
Format in all cases: cell-based
hMC1r = molecular target: T1, hMC1r (Homo sapiens, UniProt Q01726); assay: Alternative assay for agonist activity (intracellular cAMP), HBL cells, native MC1r; details: not CEREP; for EC50: cAMP HTRF; for Emax: reference NDP-α-MSH, read-out: Emax percent hMC1r (percent of the maximal response obtained with the positive control)
T1 construct: B16-F10 (mouse) and HBL (human) cell lines that express native MC1 r; endogenous in cells; host or cells: HBL human melanoma cells
Method: (§1) Accumulation of intracellular cAMP was examined as a measure of the ability of the peptides to elicit a functional response in either HEK-293 cells that express recombinant MC3r or MC4r or B16-F10 (mouse) and HBL (human) cell lines that express native MC1 r. Confluent cells were detached from culture plates by incubation in enzyme-free cell dissociation buffer. Dispersed cells were suspended in Hank's Balanced Salt Solution containing 10 mM HEPES (pH 7.5), 1 mM MgCl2, 1 mM glutamine, 0.5% albumin and 0.3 mM 3-isobutyl-1-methyl-xanthine (IBMX), a phosphodiesterase inhibitor. The cells were dispensed into 96-well plates at a density of 0.5×10^5 cells per well and pre-incubated for 10 minutes. Cells were exposed for 15 minutes at 37° C. to peptides dissolved in DMSO (final DMSO concentration of 1%) at a concentration range of 0.05-5000 nM in a total assay volume of 200 μL. NDP-α-MSH was used as the reference agonist. cAMP levels were determined by an HTRF® cAMP cell-based assay system from Cisbio Bioassays utilizing cryptate-labeled anti-cAMP and D2-labeled cAMP, with plates read on a Perkin-Elmer Victor plate reader at […]. Data analysis was performed by nonlinear regression analysis with Graph-Pad Prism® software. The maximum efficacies of the test peptides were compared to that achieved by the reference melanocortin agonist NDP-α-MSH.

hMC4r [1] = molecular target: T2, hMC4r (Homo sapiens, UniProt P32245); assay: Alternative assay for agonist activity (intracellular cAMP), HEK-293 cells, recombinant MC4r; design: expressed in transfected cells; host or cells: HEK-293; details: for Emax: HEK293, not CEREP, reference NDP-α-MSH, read-out: Emax percent hMC4r (percent of the maximal response obtained with the positive control); for EC50: not CEREP, cAMP HTRF
Method: as §1

hMC5r [2] = molecular target: T3, hMC5r (Homo sapiens, UniProt P33032); assay: Agonist activity (EC50/Emax) at hMC5r, not determined by CEREP; details: for Emax: read-out: Emax percent hMC5r (percent of the maximal response obtained with the positive control)
T3 construct: Eurofins CEREP SA

hMC5r [3] = molecular target: T3, hMC5r; assay: cAMP agonist activity assay performed at CEREP (HTRF), MC5; details: determined by CEREP, CHO-K1 cells; for EC50: cAMP HTRF; for Emax: control Alpha-MSH, read-out: Emax percent hMC5r* (percent of the maximal response obtained with the positive control)
Method: (§2) Evaluation of the agonist activity of compounds at the melanocortin receptors was determined by measuring their effects on cAMP production using the HTRF detection method at CEREP (Eurofins CEREP SA, Celle-Lévescault, France). The cells were suspended in HBSS buffer (Invitrogen) complemented with 20 mM HEPES (pH 7.4) and 500 μM IBMX, then distributed in microplates and incubated in the presence of HBSS (basal control), the test compound or the reference agonist. Incubation time, temperature, cell number, reference agonist and cell line information are included in the Table 1 below. For stimulated control measurement, separate assay wells contain reference compound. Following incubation, the cells are lysed and the fluorescence acceptor (D2-labeled cAMP) and fluorescence donor (anti-cAMP antibody labeled with europium cryptate) were added. After 60 minutes at room temperature, the fluorescence transfer was measured at excitation wavelength 337 nm and emission wavelengths 620 and 665 nm using a microplate reader (Envision, Perkin Elmer). The cAMP concentration was determined by dividing the signal measured at 665 nm by that measured at 620 nm (ratio).
(§3) The results are expressed as a percent of the control response to 1 μM of the reference. The standard reference agonist is tested in each experiment at several concentrations to generate a concentration-response curve from which its EC50 value is calculated.

mMC1r [4] = molecular target: T4, mMC1r (Mus musculus, UniProt Q01727); assay: cAMP agonist activity assay performed at CEREP (HTRF), MC1; details: determined by CEREP, B16-F1 cells; for EC50: cAMP HTRF; for Emax: control NDP-alpha-MSH, read-out: Emax percent mMC1r* (percent of the maximal response obtained with the positive control)
Method: as §2, §3

hMC3r [5] = molecular target: T5, hMC3r (Homo sapiens, UniProt P41968); assay: Alternative assay for agonist activity (intracellular cAMP), HEK-293 cells, recombinant MC3r; design: expressed in transfected cells; host or cells: HEK-293; details: for Emax: HEK293, not CEREP, reference NDP-α-MSH, read-out: Emax percent hMC3r (percent of the maximal response obtained with the positive control); for EC50: not CEREP, cAMP HTRF
Method: as §1

mMC1r [6] = molecular target: T4, mMC1r; assay: Alternative assay for agonist activity (intracellular cAMP), B16-F10 cells, native MC1r; design: B16-F10 (mouse) and HBL (human) cell lines that express native MC1 r; endogenous in cells; host or cells: B16-F10 mouse melanoma cells; details: not CEREP; for EC50: cAMP HTRF; for Emax: reference NDP-α-MSH, read-out: Emax percent mMC1r (percent of the maximal response obtained with the positive control)
Method: as §1

hMC3r [7] = molecular target: T5, hMC3r; assay: cAMP agonist activity assay performed at CEREP (HTRF), MC3; design: expressed in transfected cells; details: determined by CEREP, CHO-K1 cells
Method: as §2
(§4) The results are expressed as a percent of the control response to 1 μM of the reference. […]

hMC4r [8] = molecular target: T2, hMC4r; assay: cAMP agonist activity assay performed at CEREP (HTRF), MC4; design: expressed in transfected cells; details: determined by CEREP, CHO-K1 cells
Method: as §2, §4

T1 sequence (Q01726 whole entry): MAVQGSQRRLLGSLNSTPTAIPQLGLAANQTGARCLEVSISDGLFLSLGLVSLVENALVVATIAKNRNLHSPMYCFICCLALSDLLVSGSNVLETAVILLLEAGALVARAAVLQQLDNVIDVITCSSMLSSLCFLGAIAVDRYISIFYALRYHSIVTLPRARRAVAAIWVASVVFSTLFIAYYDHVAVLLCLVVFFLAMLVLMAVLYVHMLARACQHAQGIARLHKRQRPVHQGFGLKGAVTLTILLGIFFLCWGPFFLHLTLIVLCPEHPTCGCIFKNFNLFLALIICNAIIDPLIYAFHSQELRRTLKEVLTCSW
T2 sequence (P32245 whole entry): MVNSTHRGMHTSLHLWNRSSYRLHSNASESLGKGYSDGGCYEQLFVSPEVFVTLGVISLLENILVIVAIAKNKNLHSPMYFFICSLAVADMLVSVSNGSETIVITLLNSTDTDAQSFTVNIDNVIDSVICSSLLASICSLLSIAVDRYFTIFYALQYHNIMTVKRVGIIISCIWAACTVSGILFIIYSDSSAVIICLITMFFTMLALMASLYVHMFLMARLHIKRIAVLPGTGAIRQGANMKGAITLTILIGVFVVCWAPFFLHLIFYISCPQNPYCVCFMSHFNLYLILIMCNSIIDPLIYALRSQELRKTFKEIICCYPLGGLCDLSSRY
T5 sequence (P41968 whole entry): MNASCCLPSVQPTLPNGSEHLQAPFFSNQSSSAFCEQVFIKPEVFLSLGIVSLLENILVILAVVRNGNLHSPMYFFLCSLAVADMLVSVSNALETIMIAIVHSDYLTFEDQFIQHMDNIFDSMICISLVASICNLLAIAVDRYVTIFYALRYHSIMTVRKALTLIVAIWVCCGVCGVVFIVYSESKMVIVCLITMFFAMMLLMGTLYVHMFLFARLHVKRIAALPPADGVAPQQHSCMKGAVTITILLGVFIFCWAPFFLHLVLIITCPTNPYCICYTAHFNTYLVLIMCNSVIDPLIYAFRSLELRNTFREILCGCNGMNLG
T3 sequence (P33032 whole entry): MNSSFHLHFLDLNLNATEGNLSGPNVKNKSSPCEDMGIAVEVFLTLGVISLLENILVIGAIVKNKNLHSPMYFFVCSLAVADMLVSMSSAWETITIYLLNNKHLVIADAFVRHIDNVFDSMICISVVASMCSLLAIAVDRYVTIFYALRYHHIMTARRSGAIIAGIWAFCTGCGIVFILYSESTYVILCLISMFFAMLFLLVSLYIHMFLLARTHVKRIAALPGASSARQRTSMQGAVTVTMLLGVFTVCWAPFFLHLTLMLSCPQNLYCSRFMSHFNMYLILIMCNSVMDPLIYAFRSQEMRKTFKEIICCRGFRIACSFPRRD
T4 sequence (Q01727 whole entry): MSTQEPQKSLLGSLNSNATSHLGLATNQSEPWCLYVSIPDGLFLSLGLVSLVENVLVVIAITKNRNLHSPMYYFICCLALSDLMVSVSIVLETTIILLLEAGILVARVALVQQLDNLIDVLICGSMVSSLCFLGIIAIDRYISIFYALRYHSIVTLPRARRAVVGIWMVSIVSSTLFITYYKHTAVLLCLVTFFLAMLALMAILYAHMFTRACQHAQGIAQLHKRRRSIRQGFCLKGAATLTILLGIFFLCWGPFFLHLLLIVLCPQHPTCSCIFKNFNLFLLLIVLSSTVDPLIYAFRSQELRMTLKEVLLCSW

| Compound | EC50 (hMC1r) | Emax (hMC1r) | Emax (hMC4r [1]) | EC50 (hMC4r [1]) | EC50 (hMC5r [2]) | Emax (hMC5r [2]) | EC50 (hMC5r [3]) | Emax (hMC5r [3]) | EC50 (mMC1r [4]) | Emax (mMC1r [4]) | Emax (hMC3r [5]) | EC50 (hMC3r [5]) | EC50 (mMC1r [6]) | Emax (mMC1r [6]) | EC50 (hMC3r [7]; cAMP HTRF) | Emax (hMC3r [7]; control NDP-alpha-MSH, read-out: Emax percent hMC3r* (percent of the maximal response obtained with the positive control)) | EC50 (hMC4r [8]; cAMP HTRF) | Emax (hMC4r [8]; control NDP-alpha-MSH, read-out: Emax percent hMC4r* (percent of the maximal response obtained with the positive control)) |
| --- | --- | --- | --- | --- | --- | --- | --- | --- | --- | --- | --- | --- | --- | --- | --- | --- | --- | --- |
| CCCCCC(=O)N[C@H]1CNC(=O)CCCCNC(=O)[C@H](CCCNC(=N)N)NC(=O)[C@@H](Cc2ccccc2)NC(=O)[C@H](Cc2c[nH]cn2)NC1=O [Peptide 19] (Hexanoyl-[Dap]H[dF]R[Ava]; lactam 1-C) | 3 nM | 92% | 70% | 4300 nM | – | – | > 10000 nM | 5% | 2600 nM | 74% | 0.5% | > 10000 nM | 350 nM | 80% | – | – | – | – |
| CCCCCC(=O)N[C@H]1CNC(O)CCNC(=O)[C@H](CCCNC(=N)N)NC(=O)[C@@H](Cc2ccccc2)NC(=O)[C@H](Cc2c[nH]cn2)NC1=O (some centres unmarked) [Peptide 18] | 5 nM | 89% | 68% | 2100 nM | – | – | > 10000 nM | 3% | 180 nM | 90% | 16% | 7680 nM | 90 nM | 99% | – | – | – | – |
| CCCC[C@H](NC(C)=O)C(=O)N[C@H]1CNC(=O)CCNC(=O)[C@H](Cc2c[nH]c3ccccc23)NC(=O)[C@H](CCCNC(=N)N)NC(=O)[C@@H](Cc2cccc3ccccc23)NC(=O)C2CC(OCc3ccccc3)CN2C1=O (some centres unmarked) [Peptide 7] (Ac-[Nle][Dap][ξHyp](Bn)[d1Nal]RW[βAla]; lactam 2-C) | – | – | 26% | 5 nM | 1 nM | 71% | 2 nM | 97% | – | – | 7% | > 10000 nM | 17 nM | 74% | – | – | – | – |

Second part, the compound after the results:

| EC50 (hMC1r) | Emax (hMC1r) | Emax (hMC4r [1]) | EC50 (hMC4r [1]) | EC50 (hMC5r [2]) | Emax (hMC5r [2]) | EC50 (hMC5r [3]) | Emax (hMC5r [3]) | EC50 (mMC1r [4]) | Emax (mMC1r [4]) | Emax (hMC3r [5]) | EC50 (hMC3r [5]) | EC50 (mMC1r [6]) | Emax (mMC1r [6]) | EC50 (hMC3r [7]; cAMP HTRF) | Emax (hMC3r [7]; control NDP-alpha-MSH, read-out: Emax percent hMC3r* (percent of the maximal response obtained with the positive control)) | EC50 (hMC4r [8]; cAMP HTRF) | Emax (hMC4r [8]; control NDP-alpha-MSH, read-out: Emax percent hMC4r* (percent of the maximal response obtained with the positive control)) | Compound |
| --- | --- | --- | --- | --- | --- | --- | --- | --- | --- | --- | --- | --- | --- | --- | --- | --- | --- | --- |
| 0.6 nM | 106% | 102% | 0.9 nM | 2 nM | 58% | 0.71 nM | 60% | 0.01 nM | 108% | – | – | – | – | – | – | – | – | CC(=O)N[C@@H](CCCNC(=N)N)C(=O)N[C@H]1CCNC(=O)CCCCNC(=O)[C@H](Cc2c[nH]c3ccccc23)NC(=O)[C@H](CCCNC(=N)N)NC(=O)[C@@H](Cc2ccc(F)cc2)NC(=O)[C@H](Cc2c[nH]cn2)NC1=O [Peptide 16] |
| – | – | 39% | 0.5 nM | – | – | 0.22 nM | 110% | 260 nM | 65% | 12% | > 10000 nM | 3 nM | 58% | > 10000 nM | 9% | 0.82 nM | 50% | CCCC[C@H](NC(C)=O)C(=O)N[C@H]1CCCCNC(=O)CNC(=O)[C@H](Cc2c[nH]c3ccccc23)NC(=O)[C@H](CCCNC(=N)N)NC(=O)[C@@H](Cc2cccc3ccccc23)NC(=O)C2CC(OCc3ccccc3)CN2C1=O (some centres unmarked) [Peptide 1] (Ac-[Nle]K[ξHyp](Bn)[d1Nal]RWG; lactam 2-C) |
| – | – | 111% | 0.9 nM | 207 nM | 54% | 1600 nM | 71% | – | – | 63% | 6 nM | 113 nM | 94% | – | – | – | – | CC(=O)N[C@@H](CCCNC(=N)N)C(=O)N[C@H]1CCNC(=O)CCCCNC(=O)[C@H](Cc2c[nH]c3ccccc23)NC(=O)[C@H](CCCNC(=N)N)NC(=O)[C@@H](Cc2ccccc2)NC(=O)[C@H](CC(N)=O)NC1=O [Peptide 10] (Ac-R[Dab]N[dF]RW[Ava]; lactam 2-C) |
